Experimental data from patent US20220226473A1, “Nucleic acid nanocarrier drug and preparation method thereof, pharmaceutical composition and application thereof” (BAI YAO ZHI DA (BEIJING) NANOBIO TECHNOLOGY CO., LTD., priority 2018, published 2022).
Like-named read-outs stand apart in the source and are kept apart here. {Biotin} = biotin (Bio) of the a-strand

Experiments:
HL60 cells = experiment: Cytotoxicity of RNAh-Bio-670-EPB nanoparticles, CellTiter-Glo; assay type: cell-based; settings: HL60, treatment time 72 h, CellTiter-Glo; read-out: IC50
Procedure: Preparing a freshly prepared reagent into a corresponding volume container, and adding PBS to be quantified to 10 μM.
Cells are cultured at 37 DEG C. and 5% CO2 in a corresponding basal medium in which 10% FBS and 1% PS are respectively added. The cell density used in the experiment is above 80%. The cells are collected, and centrifuged at 1000 rpm for 4 minutes, the medium is resuspended, the cell concentration is adjusted, and it is added to the 96-well plate in a volume of 3000 cells per 50 μL, and each group has 3 replicate wells.
After 24 hours, the compound solution is transferred to each well by 50 μL/well.
The above cells after administration are cultured for 72 hours under a condition of 37 DEG C and 5% CO2.
The well plate is brought to a room temperature in advance and stands for 30 minutes, 100 μL of a CellTiter-Glo® reagent is added to each well of the well plate and mixed for 2 minutes on a shaker to promote cell lysis. The Perkin Elmer Envision 2104 Multilabel Reader is used to read values and the values are recorded.
The acquired experiment data is analyzed and processed by using excel software, and GraphPad Prism 5 software is used for curve fitting analysis.

MOLT4 cells = experiment: Cytotoxicity of RNAh-Bio-670-MTX nanoparticles, CTG; assay type: cell-based, human; settings: 200 nM
Procedure: 1) Using the RPMI1640+10% FBS+1% PS medium to culture the MOLT4 cells at 37 DEG C. and 5% CO2.
2) Collecting the cells, centrifuging at 800 rpm for 5 minutes, resuspending the medium, adjusting the cell concentration, and adding to the 96-we plate in a volume of 5000 cells per 90 μL. […]
4) After being cultured for 72 hours, adding 100 μL of the CTG reagent to each well, shaking for 2 minutes, and standing at the room temperature for 10 minutes, herein a whole process is protected from light.
5) Finally using Soft Max Pro5 software to read.

SH-SY5Y cells = experiment: Cytotoxicity of RNAh-Biotin-quasar670-aspirin nanoparticles, CTG kit; assay type: cell-based; settings: Homo sapiens, SH-SY5Y
Procedure: Experiment purpose: an effect of a compound on proliferation of a target tumor cell line is researched.
Experiment design: the compound is diluted in 8 concentration gradients and sequentially added to the target tumor cell line and incubated for 72 hours, the CTG kit is used to detect the effect of the compound on the cell proliferation.

BXPC3 cells = experiment: Cytotoxicity of RNAh-Bio-670-gemcitabine nanoparticles; assay type: cell-based; settings: Homo sapiens, BXPC-3
Excerpt: I. Samples to be tested: small molecular drug gemcitabine and […] nanoparticles

[1] = Electric potential (zeta potential) measurement of self-assembly products; assay type: physicochemical; settings: result over 3 detections, at 25 DEG C.
Procedure, shortened: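 Self-assembled RNA or DNA nanoparticles dissolved in ultrapure water; zeta potential measured manually at 25 °C.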

[2] = Particle size measurement (DLS hydrodynamic size); assay type: physicochemical; settings: DLS hydrodynamic size
Excerpt: 1. Preparing a potential sample (conventional-sequence DNA self-assembly product D-7) and putting into a sample pool, opening a sample pool cover of an instrument, and placing the instrument;
2. opening software, and clicking a menu, so a manual measurement parameter setting dialog box appears;
3. setting a software detection parameter; and then
4. clicking Ok to complete the settings, when a measurement dialog box appears, clicking Start to start, a DLS measurement value result of a hydrodynamic size of the self-assembly product D-7 is shown below in Table 40: […]

[3] = TM value detection by solubility curve method (SYBR Green I); assay type: physicochemical; settings: DNA nanoparticles
Procedure: A solubility curve method is used to detect TM values of the 7 groups of the extension fragment deformation+core short-sequence RNA nanoparticles, and the samples are consistent with the potential samples.
(1) After the sample is diluted with ultrapure water, 5 μg of the diluted sample is mixed with 2 μL of SYBR Green I dye (diluted by 1:200), a final volume is 20 μL, and the dilution concentration is as follows:
(2) It is incubated for 30 min in the dark at a room temperature; and
(3) On-machine detection is performed, a program is set to start at 20 DEG C., the temperature rises per second from 0.1 DEG C. to 95 DEG C., and reading is performed every 5 s.
Due to the particularity of the RNA samples, a temperature corresponding to ½ RFUmax in a range of 20 to 90 DEG C. is used as a sample Tm value in this test.
A solubility curve method is used to detect TM values of the 7 groups of the extension fragment deformation+core short-sequence DNA nanoparticles, and the samples are consistent with the potential samples.
(1) After the sample is diluted with ultrapure water, 5 μg of the diluted sample is mixed with 2 μL of SYBR Green I dye (diluted by 1:200). a final volume is 20 μL, and the dilution concentration is as follows: […]

[4] = Drug loading rate of nucleic acid nanoparticles (chemical loading, absorbance standard curve); assay type: physicochemical; design: unit not given here
Excerpt: According to the chemical loading method (unless otherwise specified, the method is the same as that of Embodiment 5) of Embodiment 5, the RNA nanoparticles formed by the self-assembly of the previous R-15, R-16, R-17, R-18, R-19, R-20 and R-21 in Embodiment 9, and the DNA nanoparticles formed by the self-assembly of the D-8, D-9, D-10, D-11, D-12, D-13 and D-14 in Embodiment 10 are respectively used as doxorubicin loading carriers, doxorubicin loading rates measured are respectively as follows:
According to the chemical loading method (unless otherwise specified, the method is the same as that of Embodiment 5) of Embodiment 5, the DNA nanoparticles formed by the self-assembly of the previous D-10 and D-14 in Embodiment 10 are used as a daunorubicin loading carrier.
According to a chemical loading method of Embodiment 5 (unless otherwise specified, the method is the same as that of Embodiment 5, the same molar number of the epirubicin is used as a loading amount), nucleic acid nanoparticles (a molecular weight is 29550, it is similar to the RNA nanoparticles in Embodiment 1, and a difference is that a fluorescent label on a c-strand is Cy5) are used as a carrier, and respectively loaded with: epirubicin, methotrexate, pirarubicin, daunorubicin, […], 10-hydroxycamptothecin, aspirin and gemcitabine.
Herein, when a standard curve is drawn, the absorbance of the above drugs on the microplate reader is measured respectively. The absorbance of the epirubicin, methotrexate, pirarubicin, daunorubicin, […], 10-hydroxycamptothecin, aspirin and gemcitabine is respectively detected at the following wavelengths: 492 nm, 303 nm, 492 nm, 492 nm, 265 nm, 384 nm, 225 nm and 268 nm. The standard curves obtained correspondingly are respectively shown in FIG. 48a, FIG. 49, FIG. 50sa, FIG. 51, FIG. 52, FIG. 53, FIG. 54a and FIG. 55. […]

HepG2 cells [5] = experiment: Cell binding of DNA nanoparticles and carrier drugs by FACS; assay type: cell-based; settings: incubated at 37 DEG C. for 2 h, flow cytometry
Procedure: 1. A cell state is adjusted to a logarithmic growth phase, the medium is changed into a medium without biotin and folic acid, and it is incubated overnight in an incubator at 37 DEG C.
2. After incubation, cell suspension is trypsinized and collected, and centrifuged at 1000 rpm for 5 min, after the concentration is adjusted, a 2×10^6-5×10^6 cell/EP tube is taken and washed twice with 1 mL/tube of 1% BSA-PBS, and cells at the bottom of the tube is observed to prevent them from being absorbed.
3. A substance to be tested is dissolved, and the substance to be tested is diluted to a use concentration.
4. Cell supernatant is absorbed, 100 μL of a corresponding sample is added to each tube in order, light is avoided, and it is incubated at 37 DEG C. for 2 h.
5. It is washed twice with 1% BSA-PBS; and centrifuged at 1000 rpm for 5 min.
6. Finally, it is precipitated with 300 μL of PBS cell resuspension, and flow Cytometric on-machine detection (the blank carrier used in the present embodiment is labeled by Quasar670, and the doxorubicin in the carrier drug has its own fluorescence, so the detection may be performed through FL4-APC and FL2-PE respectively) is performed.

HepG2 cells [6] = experiment: CCK8 toxicity of DNA nanoparticles and carrier drugs; assay type: cell-based; settings: HepG2, CCK8, 72 hours
Procedure: A CCK8 method is used to detect the toxicity of DNA nanoparticles and carrier drugs to HepG2.
2. A sample to be tested is diluted according to the following table and added: the original culture medium is removed and 100 μL of a culture medium of the sample to be tested with the different concentration is added, and there are 3 replicate wells in each group.
In the present embodiment, the loaded drug and the blank carrier are firstly prepared into 100 μM of stock solution using the PBS, and then diluted with the complete culture medium (biotin-free DMEM). The original drug doxorubicin is firstly prepared into 100 NM of stock solution by using the DMSO, and then diluted with the complete culture medium (biotin-free DMEM). The DMSO is directly diluted with the complete medium (biotin-free DMEM).
3. After the sample to be tested is added, the 96-well plate is placed in an incubator under 37 DEG C. and 5% CO2 and incubated for 72 hours.
4. A kit is taken out and melted at a room temperature, 10 μL of CCK-8 solution is added to each wall, or the CCK8 solution is nixed with the culture medium at a ratio of 1:9, and then added to the well in an amount of 100 μL/well.
5. It is continuously incubated in the cell incubator for 4 hours, and a length of time depends on experimental conditions such as a cell type and a el density.
6. A microplate reader is used to measure an absorbance at 450 nm.
7. Calculation: cell viability (%)=(OD experimental group−OD blank group)[…]/(OD control group−OD blank group), IC50 is calculated by GraphPad Prism 5.0.

In the case of `COc1cccc2c1C(=O)c1c(O)c3c(c(O)c1C2=O)C[C@@](O)(C(=O)CO)C[C@@H]3O[C@H]1C[C@H](N)[C@@H](O)[C@H](C)O1` [Epirubicin (EPB)], the IC50 (HL60 cells) is reported as 302 nM.

For `CN(Cc1cnc2nc(N)nc(N)c2n1)c1ccc(C(=O)N[C@@H](CCC(=O)O)C(=O)O)cc1` [MTX, methotrexate], the “effect on proliferation of MOLT4 cells” value (MOLT4 cells; 72 hours) was “significant inhibitory effect on the proliferation of the MOLT4 cells”.

In the case of `CN(Cc1cnc2nc(N)nc(N)c2n1)c1ccc(C(=O)N[C@@H](CCC(=O)O)C(=O)O)cc1` [Methotrexate (MTX)], the “cell survival rate (%)” value (MOLT4 cells; MOLT-4, 72 h) is reported as 2.88%.

`CC(=O)Oc1ccccc1C(=O)O` [aspirin] gave an IC50 (SH-SY5Y cells; 72 hours, read-out: IC50, SH-SY5Y cell proliferation) of 1.43 mM, an inhibition at 5 µM (SH-SY5Y cells; administration concentration 5 μM, 72 hours, read-out: cell inhibition rate, SH-SY5Y cells) of 17.7% and an IC50 (SH-SY5Y cells; 72 h, CTG kit, read-out: IC50) of 1.43 mM.

Molecule `Nc1ccn([C@@H]2O[C@H](CO)[C@@H](O)C2(F)F)c(=O)n1` [gemcitabine] has an IC50 (BXPC3 cells; BXPC3, 72 h, read-out: IC50) of 34.2 nM, an inhibition at 5 µM (BXPC3 cells; administration concentration 5 μM, read-out: cell inhibition rate, BxPC3 cells) of 83% and an IC50 (BXPC3 cells; read-out: IC50, BxPC3 cell proliferation) of 34.1 nM.

B1: D-14: extension fragment deformation+core short-sequence DNA nanoparticle, SEQ ID NO: 159-161, 3′ biotin (nucleic acid)
chain 1: GCGGCGAGCGGCGACGAGCGTTGCGGCCGGAGGCCGG
chain 2: CCGGCCTCCGGCCGCTTCGGCGCCAGCCGCC
chain 3: GGCGGCAGGCGCCCATAGCCGTCGCCGCTCGCCGC
modifications: chain 1: DNA, 3' {Biotin}, backbone not given here; chain 2: DNA, backbone not given here; chain 3: DNA, backbone not given here; three-strand DNA nanoparticle carrier
With B1 the “Potential ZP, Experiment result” value [1] was −28.73 mV, the “Mean particle size (nm)” value [2] was 6.896 nm and the “TM value (° C.)” value [3] was 49.2 °C. The daunorubicin loading rate ([4]; absorbance at 492 nm) was 25.1, the doxorubicin loading rate ([4]; chemical loading method of Embodiment 5) was 32 and the Positive rate (HepG2 cells [5]; HepG2, 1 μM) was 97.4%. It also gave a Positive rate (HepG2 cells [5]; HepG2, 2 μM) of 98.3% and an IC50 (HepG2 cells [6]) of over 1000 nM.
